In patent US20080280933A1, “BENZIMIDAZOLYL COMPOUNDS” (priority 2006, published 2008):

Target: T1, mGluR2 receptor (metabotropic glutamate receptor 2) (Homo sapiens, UniProt Q14416)
T1 construct: expressed in transfected cells
Assay: mGluR2 Potentiator Screen, FLIPR, EC10-EC20 glutamate challenge
Assay type: cell-based
Details: mGluR2 potentiator screen, Table 7; read-out: EC50
Description: Procedure for mGluR2 Potentiator Screen NLB Methods EC10-EC20 Challenge Cell Culture and Plating:
Cells used for this screen are HEK cells stably transfected with the mGluR2 receptor (metabotropic glutamate receptor 2) and the Gα15 G protein. Clones were identified by functional activity (FLIPR). Cells are grown in growth media containing: DMEM High Glucose with Glutamine and Na Pyruvate (GIBCO), 10% (v/v) Heat inactivate FBS (GIBCO) G418 500 ug/ml (from 50 mg/ml stock) (GIBCO) and Blasticidin 3 ug/ml (from 5 mg/ml stock made in H2O) (Invitrogen).
2 days before the assay cell are trypsinized with 0.25% trysin/EDTA (GIBCO), spun down at 1000 rpm for 5 minutes, resuspended in growth media and plated on polystyrene 384 well black wall/clear bottom poly-D-lysine coated plates at a density of approximately 18,000 cells/well in a volume of 50 μL per well. One day before the assay the growth media is removed from the plates by flicking and replaced with media containing DMEM High Glucose without Glutamine and Na Pyruvate (GIBCO) and 10% (v/v) dialyzed FBS (GIBCO). The reason for the removal of glutamine the day before the assay is to minimize the amount of glutamate that will be present during the assay, as endogenous glutarnate released from the cells can reduce the fluorescent response and interfere with the FLIPR screen.
FLIPR Methods and Data Analysis:
On the day of the assay, the FLIPR assay is performed using the following methods:
The pH is adjusted to 7.4 with 1M NaOH. Prepare a 2 mM (approx.) stock solution of Fluo-4.am (Molecular Probes) dye in DMSO −22 μl DMSO per 50 ug vial (440 μL per 1 mg vial). Make a 1 mM (approx.) flou-4, PA working solution per vial by adding 22 μl of 20% pluronic acid (PA) (Molecular Probes) in DMSO to each 50 ug vial (440 μL per 1 mg vial). Prepare a 250 mM Probenecid (Sigma) stock solution by dissolving 0.71 g into 5 ml 1N NaOH and 5 ml assay buffer (for each liter of assay wash buffer). Make 4 uM (approx.) dye incubation media by adding 2.50 ug vials per 11 ml DMEM high glucose without glutamine (220 ml per 1 mg vial). Add 110 μL probenecid stock per 11 ml (2.5 mM final [concentration]). To the dye media add 3 units/ml of glutamic-pyruvic transaminase (GPT, Sigma) and 3 mM Na Pyruvate. The assay has worked with dye concentrations from 2 uM to 8 uM dye as well. To the assay buffer from drug preparation, add 1.83 mls DMSO and 400 μL. 15.8% P104 (from New Leads biology) per liter for final concentrations of 0.18% DMSO and 0.006% P104. To the assay buffer for cell washing, add probenecid in the same manner and concentration that was used for the dye media.
Remove growth media from cell plates by flicking. Add 50 μl/well dye solution. Incubate 1 hour at 37° C. and 5% CO2. Remove dye solution and wash 3 times with assay buffer+probenecid (100 μl probenecid stock per 10 ml buffer), leaving 30 μL/well assay buffer. Wait at least 10-15 minutes. Compounds and agonist challenge additions are performed with the FLIPR. The in addition is for test compounds, which are added as 15 μL of 4× [concentration] of potentiator. The second 2nd addition is 15 μL of 4× [concentration] of agonist or challenge. This achieves 1× concentration of all compounds only after 2nd addition. The 1st and 2nd additions are performed separately using the FLIPR, which give 2 different data files. Compounds are pretreated at least 30 minutes before agonist addition.
Results are analyzed by dividing the peak fluorescent value of the FLIPR response by the […] to achieve a ratio response. The ratios are then analyzed by curve fitting programs. Since potent compounds can give an inverted U dose response curve (due to effects on endogenous glutamate by the potentiators) points are deleted at concentrations higher than the concentration that gives the maximum effect. Maximum values for dose response curves (forced fitting) are derived from standards on the plate.
Compound Preparation and Glutamate Challenge: […]

T1 sequence (Q14416 19-872, species assumed): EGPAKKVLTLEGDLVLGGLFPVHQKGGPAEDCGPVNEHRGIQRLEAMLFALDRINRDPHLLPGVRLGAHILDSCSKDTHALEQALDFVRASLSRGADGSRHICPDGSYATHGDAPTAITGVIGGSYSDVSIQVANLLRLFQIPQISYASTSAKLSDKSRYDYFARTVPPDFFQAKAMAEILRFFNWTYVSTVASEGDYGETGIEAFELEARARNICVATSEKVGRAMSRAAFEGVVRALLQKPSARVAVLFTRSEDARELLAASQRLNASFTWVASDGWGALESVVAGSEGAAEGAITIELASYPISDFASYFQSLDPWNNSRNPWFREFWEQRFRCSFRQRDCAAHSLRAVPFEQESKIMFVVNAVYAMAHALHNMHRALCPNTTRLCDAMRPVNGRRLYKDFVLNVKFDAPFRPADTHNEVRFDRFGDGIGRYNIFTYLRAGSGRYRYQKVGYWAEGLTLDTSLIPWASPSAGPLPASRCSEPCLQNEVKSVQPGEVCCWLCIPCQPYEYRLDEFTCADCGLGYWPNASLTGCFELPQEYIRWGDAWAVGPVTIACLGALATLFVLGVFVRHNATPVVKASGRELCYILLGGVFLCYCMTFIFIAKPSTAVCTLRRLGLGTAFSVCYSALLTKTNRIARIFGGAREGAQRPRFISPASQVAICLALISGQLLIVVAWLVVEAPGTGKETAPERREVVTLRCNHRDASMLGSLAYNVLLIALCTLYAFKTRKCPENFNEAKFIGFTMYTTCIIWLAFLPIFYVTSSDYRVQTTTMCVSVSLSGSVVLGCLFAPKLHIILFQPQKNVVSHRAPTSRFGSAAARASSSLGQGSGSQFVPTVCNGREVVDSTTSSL

| Compound | EC50 [nM] |
| --- | --- |
| CCCOc1ccc(Cl)cc1C1CCN(Cc2nc3ccccc3n2C)CC1 [compound 220] | 216 |
| CC(C)COc1ccc(Cl)cc1C1CCN(Cc2nc3ccccc3n2C)CC1 [compound 178] | 499 |
| Clc1ccc(OCC2CCOC2)c(C2CCN(Cc3nc4ccccc4n3C3CC3)CC2)c1 (stereo not drawn) [compound 202] | 2880 |
| Cn1c(CN2CCC(c3cccc4ccc(C(N)=O)cc34)CC2)nc2c(Br)cccc21 [compound 170] | 8090 |
| COCCn1c(CN2CCC(c3cc(Cl)ccc3OCC3CC3C)CC2)nc2ccccc21 (stereo not drawn) [compound 201] | 623 |
| Cn1c(CN2CCC(c3ccccc3Cl)C2)nc2ccccc21 (stereo not drawn) [compound 152] | 371 |
| CC(C)COc1ccc(Cl)cc1C1CCN(Cc2nc3ccccc3n2C2CC2)CC1 [compound 179] | 1740 |

Same assay, conditions: read-out: EC50

| Compound | EC50 [nM] |
| --- | --- |
| 2-[4-(2-Methoxy-phenyl)-piperidin-1-ylmethyl]-1-methyl-1H-benzoimidazol-4-ylamine [Entry 264] | 5210 |
| Cn1c(CN2CCC(c3ccccc3F)CC2)nc2cc(F)ccc21 [compound 352] | 88.5 |
| Cc1cccc2nc(CN3CCC(c4ccccc4F)CC3)n(C)c12 [compound 301] | 42.3 |
| CCOC(=O)CCC(=O)N1CC2(CCN(Cc3nc4ccccc4n3C)CC2)c2cc(Cl)ccc21 [compound 41] | 1630 |
| COc1ccccc1C1(OC)CCN(Cc2nc3ccccc3n2CCF)CC1C (stereo not drawn) [compound 335] | 10400 |
| Cn1c(CN2CCC(O)(c3ccc(Cl)cc3)CC2)nc2ccccc21 [compound 76] | > 5730 |
| Cn1c(CN2CCC3(CC2)CN(C(=O)c2cccs2)c2ccccc23)nc2ccccc21 [compound 59] | 3110 |
| COc1ccccc1C1CCN(Cc2nc3ccccc3n2C2CC2)CC1 [compound 244] | 484 |
| Fc1ccccc1C1CCN(Cc2nc3ccccc3n2C2CC2)CC1 [compound 251] | 1340 |
| Cn1c(CN2CCC(O)(c3ccc(Br)cc3)CC2)nc2ccccc21 [compound 75] | > 7480 |
| 2-(2-((4-(2-fluorophenyl)piperidin-1-yl)methyl)-1-methyl-1H-benzo[d]imidazol-5-yl)propan-2-ol [Entry 298] | 2530 |
| Cn1c(CN2CCC(c3cccc(C(C)(C)C)c3)CC2)nc2ccccc21 [compound 419] | 149 |
| Cc1cc(C)c2c(c1)C1(CCN(Cc3nc4ccccc4n3C)CC1)CN2CC(C)C [compound 125] | 3930 |
| Cc1cccc2c1nc(CN1CCC(c3ccccc3F)CC1)n2C [compound 267] | 249 |
| CCC(CC)CN1CC2(CCN(Cc3nc4ccccc4n3C)CC2)c2cc(C)cc(C)c21 [compound 126] | 6010 |
| C[C@@H]1CN(Cc2nc3ccccc3n2C)CC[C@@H]1c1ccc(F)c(F)c1 (single isomer, unassigned) [Entry 473, 2-{[Cis-4-(3,4-Difluoro-phenyl)-3-methyl-piperidin-1-yl]methyl}-1-methyl-1H-benzoimidazole] | 1030 |
| COc1cccc(C2CCN(Cc3nc4cc(F)ccc4n3C)CC2)c1 [compound 378] | 568 |
| Cn1c(CN2CCC(c3cccc(F)c3F)CC2)nc2ccccc21 [compound 452] | 20.2 |
| 4-Fluoro-2-((4-(2-Fluorophenyl)piperidin-1-yl)methyl)-1-methyl-1H-benzo[d]imidazole [Entry 325] | 97.9 |
| Cn1c(CN2CCC(c3ccccc3F)CC2)nc2c(F)cccc21 [Entry 325, 4-Fluoro-2-((4-(2-Fluorophenyl)piperidin-1-yl)methyl)-1-methyl-1H-benzo[d]imidazole] | 33.8 |
| Cn1c(CN2CCC(c3ccc(F)cc3)CC2)nc2cc(F)c(F)cc21 [compound 368] | 475 |
| Cc1ccc2c(c1)C1(CCN(Cc3nc4ccccc4n3C)CC1)CN2CC1CC1 [compound 142] | 3020 |
| C[C@@H]1CN(Cc2nc3ccccc3n2C)CC[C@@H]1c1ccc(F)c(F)c1 (racemic) [Entry 462, 2-{[Cis-4-(3,4-Difluoro-phenyl)-3-methyl-piperidin-1-yl]methyl}-1-methyl-1H-benzoimidazole] | 241 |
| Cc1ccc2c(c1)C1(CCN(Cc3nc4ccccc4n3C)CC1)CN2CC(C)C [compound 119] | 2900 |
| COCn1c(CN2CCC(c3ccc(C(F)(F)F)cc3)CC2)nc2ccccc21 [compound 287] | 1900 |

| Compound | EC50 [nM] |
| --- | --- |
| C#CCOc1ccc(Cl)cc1C1CCN(Cc2nc3ccccc3n2C)CC1 [compound 238] | 78.1 |
| COc1ccc(F)cc1C1CCN(Cc2nc3ccccc3n2C)CC1 [compound 300] | 60.7 |
| Cn1c(CN2CCC(c3ccc(F)cc3F)CC2)nc2cccc(F)c21 [compound 424] | 48.3 |
| Cc1ccc2c(c1)C1(CCN(Cc3nc4ccccc4n3C)CC1)CN2C(=O)c1cccnc1 [compound 35] | 3610 |
| CN(C)CCCOc1ccccc1C1CCN(Cc2nc3ccccc3n2C)CC1 [compound 88] | 4190 |
| OCCn1c(CN2CCC(c3ccccc3F)CC2)nc2ccccc21 [compound 295] | 1740 |
| Cn1c(CN2CCC(c3ccc(C(F)(F)F)cc3)CC2)nc2cc(C(F)(F)F)ccc21 [compound 362] | 5010 |
| C[C@@H]1CN(Cc2nc3ccccc3n2C)CC[C@@H]1c1ccc(C(F)(F)F)cc1C(F)(F)F (relative stereo) [compound 466] | 161 |
| CCOc1ccc(Cl)cc1C1CCN(Cc2nc3ccccc3n2CF)CC1 [compound 226] | 637 |
| FCCn1c(CN2CCC(c3cc(C(F)(F)F)ccc3F)CC2)nc2ccccc21 [compound 329] | 463 |
| CCCCN1CC2(CCN(Cc3nc4ccccc4n3C)CC2)c2cc(C)ccc21 [compound 139] | 1970 |
| COc1ccccc1C1CCN(Cc2nc3cc(C(=O)O)ccc3n2C)CC1 [Entry 288, 2-[4-(2-Methoxy-phenyl)-piperidin-1-ylmethyl]-1-methyl-1H-benzoimidazole-5-carboxylic acid] | 1680 |
| Cc1ccc2c(c1)C1(CCN(Cc3nc4ccccc4n3C)CC1)CN2 [compound 143] | > 8670 |
| Cn1c(CN2CCC(c3ccc(F)cc3)CC2)nc2cc(C#N)ccc21 [compound 331] | 299 |
| C[C@@H]1CN(Cc2nc3ccccc3n2C)CC[C@@H]1c1ccc(C(F)(F)F)cc1 (relative stereo) [compound 404] | 471 |
| CC(C)CN1CC2(CCN(Cc3nc4ccccc4n3C)CC2)c2cc(F)ccc21 [compound 115] | 6490 |
| Cn1c(CN2CCC(c3ccc(Cl)cc3F)CC2)nc2cc(F)ccc21 [compound 458] | 41.9 |
| Cc1cc(C(=O)N2CC3(CCN(Cc4nc5ccccc5n4C)CC3)c3ccccc32)n(C)n1 [compound 53] | > 6290 |
| Cn1c(CN2CCC(c3ccc(C(F)(F)F)cc3F)CC2)nc2cc(F)ccc21 [compound 353] | < 40.2 |
| Cn1c(CN2CCC(c3ccc(F)cc3)CC2)nc2cccc(F)c21 [compound 342] | 55.2 |
| COc1cc(C(F)(F)F)ccc1C1CCN(Cc2nc3cc(C#N)ccc3n2C)CC1 [compound 390] | 52 |
| Cn1c(CN2CC[C@@H]3c4c(Br)ccc(Cl)c4CC[C@H]3C2)nc2ccccc21 [compound 299] | 6120 |
| Cn1c(CN2CCC(c3ccc(C(F)(F)F)cc3)C(C)(C)C2)nc2ccccc21 (stereo not drawn) [compound 411] | 633 |
| Cn1c(CN2CCC(c3ccc(F)cc3)CC2)nc2c(Br)cccc21 [compound 366] | 2140 |
| CC(C)Oc1ccccc1C1CCN(Cc2nc3cc(F)ccc3n2C)CC1 [compound 371] | 692 |
